The results in this text go back to PMC5830402, “Cell-based glycan arrays for probing glycan–glycan binding protein interactions” (Nature Communications, 2018).

For experiment [1], the target named is T1, ST6Gal1 (rat α2-6ST) (Rattus norvegicus, UniProt P13721).
T1 construct: recombinant glycosyltransferase
T1 sequence (P13721 27-403 limits assumed): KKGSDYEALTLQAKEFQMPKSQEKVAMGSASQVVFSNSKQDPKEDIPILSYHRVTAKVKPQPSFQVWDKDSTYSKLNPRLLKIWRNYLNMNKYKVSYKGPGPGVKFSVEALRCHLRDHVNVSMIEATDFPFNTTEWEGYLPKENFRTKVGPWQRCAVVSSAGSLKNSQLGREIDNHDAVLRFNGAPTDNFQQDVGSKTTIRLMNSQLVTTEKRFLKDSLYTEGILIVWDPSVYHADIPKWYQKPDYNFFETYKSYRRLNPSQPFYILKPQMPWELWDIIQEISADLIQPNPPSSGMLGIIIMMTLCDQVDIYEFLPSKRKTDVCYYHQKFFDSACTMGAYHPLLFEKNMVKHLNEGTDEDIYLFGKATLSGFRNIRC
The experiment is described as follows: transfer to Lec2 cell surface, ECL lectin flow cytometry; biotin-azide / streptavidin detection. The settings on record: added recombinant enzyme; acceptor N-glycan LacNAc on Lec2 CHO cells; 37 °C, 1 h. It is filed as cell-based.

For experiment [2], the target named is T2, ST3Gal4 (human α2-3ST) (Homo sapiens, UniProt Q11206).
T2 construct: recombinant glycosyltransferase
T2 sequence (Q11206 27-333 limits assumed): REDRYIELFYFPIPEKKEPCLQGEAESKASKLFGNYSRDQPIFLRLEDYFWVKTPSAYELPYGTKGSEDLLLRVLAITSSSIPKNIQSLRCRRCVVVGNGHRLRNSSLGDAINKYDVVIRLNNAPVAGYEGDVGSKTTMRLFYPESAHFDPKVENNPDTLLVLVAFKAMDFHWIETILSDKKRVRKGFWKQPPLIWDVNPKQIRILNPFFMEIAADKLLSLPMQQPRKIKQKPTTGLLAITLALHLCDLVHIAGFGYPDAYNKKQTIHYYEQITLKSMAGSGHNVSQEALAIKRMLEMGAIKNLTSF
The description is as above. As to conditions: added recombinant enzyme; acceptor N-glycan LacNAc on Lec2 CHO cells; 37 °C, 1 h. The class given is cell-based.

Take `C#CCOC(=O)N[C@H]1[C@H]([C@H](O)[C@H](O)CO)O[C@](OP(=O)(O)OC[C@H]2O[C@@H](n3ccc(N)nc3=O)[C@H](O)[C@@H]2O)(C(=O)O)C[C@@H]1O` [compound 7, CMP-SiaPoc]: the “transfer to Lec2 cell surface, ECL lectin flow cytometry; biotin-azide / strepta” value is “Upon sialylation by ST3Gal4 and ST6Gal1, Lec2 CHO cells showed a reduction in ECL binding” in experiment [1]; “Upon sialylation by ST3Gal4 and ST6Gal1, Lec2 CHO cells showed a reduction in ECL binding” in experiment [2].
